Laboratory results published in PubChem BioAssay (NCI).
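1) Cells in 96-well plates. 2) Compound, 48 h, 5 concentrations. 3) Linear interpolation between surrounding doses. 4) Unreached endpoint = highest concentration. TGI marks complete inhibition of growth.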

Experiments:
Experiment in all cases: NCI anticancer screen, dose series, 48 h
A549 NSCLC = tested on: A549 NSCLC
MOLT-4 leukemia = tested on: MOLT-4 leukemia
HOP-62 NSCLC = tested on: HOP-62 NSCLC
M14 melanoma = tested on: M14 melanoma
MDA-MB-231 breast = tested on: MDA-MB-231 breast
MALME-3M melanoma = tested on: MALME-3M melanoma
OVCAR-4 ovarian = tested on: OVCAR-4 ovarian
HT29 colon = tested on: HT29 colon
EKVX NSCLC = tested on: EKVX NSCLC
LOX IMVI melanoma = tested on: LOX IMVI melanoma
SR leukemia = tested on: SR leukemia
ACHN renal = tested on: ACHN renal
COLO 205 colon = tested on: COLO 205 colon
HOP-92 NSCLC = tested on: HOP-92 NSCLC
TK-10 renal = tested on: TK-10 renal
HS 578T breast = tested on: HS 578T breast
HCT-116 colon = tested on: HCT-116 colon
DU-145 prostate = tested on: DU-145 prostate
MDA-N = tested on: MDA-N
IGROV1 ovarian = tested on: IGROV1 ovarian
U251 CNS = tested on: U251 CNS
UACC-257 melanoma = tested on: UACC-257 melanoma
CCRF-CEM leukemia = tested on: CCRF-CEM leukemia
KM12 colon = tested on: KM12 colon
HCT-15 colon = tested on: HCT-15 colon
RPMI-8226 leukemia = tested on: RPMI-8226 leukemia
OVCAR-5 ovarian = tested on: OVCAR-5 ovarian
A498 renal = tested on: A498 renal
RXF 393 renal = tested on: RXF 393 renal
T-47D breast = tested on: T-47D breast
OVCAR-3 ovarian = tested on: OVCAR-3 ovarian
BT-549 breast = tested on: BT-549 breast
CAKI-1 renal = tested on: CAKI-1 renal
SK-MEL-28 melanoma = tested on: SK-MEL-28 melanoma
SK-MEL-2 melanoma = tested on: SK-MEL-2 melanoma
SK-OV-3 ovarian = tested on: SK-OV-3 ovarian
UO-31 renal = tested on: UO-31 renal
NCI-H226 lung = tested on: NCI-H226 lung
MCF7 breast = tested on: MCF7 breast
NCI/ADR-RES ovarian = tested on: NCI/ADR-RES ovarian
NCI-H460 lung = tested on: NCI-H460 lung
SN12C renal = tested on: SN12C renal
SF-268 CNS = tested on: SF-268 CNS
SK-MEL-5 melanoma = tested on: SK-MEL-5 melanoma
SNB-19 CNS = tested on: SNB-19 CNS
NCI-H522 lung = tested on: NCI-H522 lung
SW-620 colon = tested on: SW-620 colon
786-0 renal = tested on: 786-0 renal
SF-539 CNS = tested on: SF-539 CNS
HL-60(TB) leukemia = tested on: HL-60(TB) leukemia
MDA-MB-435 = tested on: MDA-MB-435
PC-3 prostate = tested on: PC-3 prostate
OVCAR-8 ovarian = tested on: OVCAR-8 ovarian
SF-295 CNS = tested on: SF-295 CNS
NCI-H23 lung = tested on: NCI-H23 lung
SNB-75 CNS = tested on: SNB-75 CNS
HCC-2998 colon = tested on: HCC-2998 colon
UACC-62 melanoma = tested on: UACC-62 melanoma
K-562 leukemia = tested on: K-562 leukemia

SMILES: O=C(O)c1cc2c(cc1CC(Cc1ccc3c(c1)CCC3)C(=O)O)CCC2 (configuration not stated)
- TGI (A549 NSCLC): > 100 µM
- TGI (MOLT-4 leukemia): > 100 µM
- TGI (HOP-62 NSCLC): > 100 µM
- TGI (M14 melanoma): > 100 µM
- TGI (MDA-MB-231 breast): > 100 µM
- TGI (MALME-3M melanoma): > 100 µM
- TGI (OVCAR-4 ovarian): > 100 µM
- TGI (HT29 colon): > 100 µM
- TGI (EKVX NSCLC): > 100 µM
- TGI (LOX IMVI melanoma): > 100 µM
- TGI (SR leukemia): > 100 µM
- TGI (ACHN renal): > 100 µM
- TGI (COLO 205 colon): > 100 µM
- TGI (HOP-92 NSCLC): > 100 µM
- TGI (TK-10 renal): > 100 µM
- TGI (HS 578T breast): > 100 µM
- TGI (HCT-116 colon): > 100 µM
- TGI (DU-145 prostate): > 100 µM
- TGI (MDA-N): > 100 µM
- TGI (IGROV1 ovarian): > 100 µM
- TGI (U251 CNS): > 100 µM
- TGI (UACC-257 melanoma): > 100 µM
- TGI (CCRF-CEM leukemia): > 100 µM
- TGI (KM12 colon): > 100 µM
- TGI (HCT-15 colon): > 100 µM
- TGI (RPMI-8226 leukemia): > 100 µM
- TGI (OVCAR-5 ovarian): > 100 µM
- TGI (A498 renal): > 100 µM
- TGI (RXF 393 renal): > 100 µM
- TGI (T-47D breast): > 100 µM
- TGI (OVCAR-3 ovarian): > 100 µM
- TGI (BT-549 breast): > 100 µM
- TGI (CAKI-1 renal): > 100 µM
- TGI (SK-MEL-28 melanoma): > 100 µM
- TGI (SK-MEL-2 melanoma): > 100 µM
- TGI (SK-OV-3 ovarian): > 100 µM
- TGI (UO-31 renal): > 100 µM
- TGI (NCI-H226 lung): > 100 µM
- TGI (MCF7 breast): > 100 µM
- TGI (NCI/ADR-RES ovarian): > 100 µM
- TGI (NCI-H460 lung): > 100 µM
- TGI (SN12C renal): > 100 µM
- TGI (SF-268 CNS): > 100 µM
- TGI (SK-MEL-5 melanoma): > 100 µM
- TGI (SNB-19 CNS): > 100 µM
- TGI (NCI-H522 lung): > 100 µM
- TGI (SW-620 colon): > 100 µM
- TGI (786-0 renal): > 100 µM
- TGI (SF-539 CNS): > 100 µM
- TGI (HL-60(TB) leukemia): > 100 µM
- TGI (MDA-MB-435): > 100 µM
- TGI (PC-3 prostate): > 100 µM
- TGI (OVCAR-8 ovarian): > 100 µM
- TGI (SF-295 CNS): > 100 µM
- TGI (NCI-H23 lung): > 100 µM
- TGI (SNB-75 CNS): > 100 µM
- TGI (HCC-2998 colon): > 100 µM

SMILES: COc1cccc2c(N)c3cccc(C(=O)NCCN(C)C)c3nc12
- TGI (A549 NSCLC): 2.16 µM
- TGI (MOLT-4 leukemia): 0.264 µM
- TGI (HOP-62 NSCLC): 0.833 µM
- TGI (M14 melanoma): 1.71 µM
- TGI (MDA-MB-231 breast): 0.853 µM
- TGI (MALME-3M melanoma): 0.501 µM
- TGI (OVCAR-4 ovarian): 0.656 µM
- TGI (HT29 colon): 0.633 µM
- TGI (EKVX NSCLC): 1.09 µM
- TGI (LOX IMVI melanoma): 0.472 µM
- TGI (SR leukemia): 1.12 µM
- TGI (ACHN renal): 2.03 µM
- TGI (COLO 205 colon): 0.592 µM
- TGI (HOP-92 NSCLC): 1.3 µM
- TGI (TK-10 renal): 6.14 µM
- TGI (HS 578T breast): 0.571 µM
- TGI (HCT-116 colon): 0.726 µM
- TGI (DU-145 prostate): 2.64 µM
- TGI (MDA-N): 0.982 µM
- TGI (IGROV1 ovarian): 1.65 µM
- TGI (U251 CNS): 1.57 µM
- TGI (UACC-257 melanoma): 3.41 µM
- TGI (CCRF-CEM leukemia): 0.288 µM
- TGI (KM12 colon): 3.59 µM
- TGI (HCT-15 colon): 21.2 µM
- TGI (RPMI-8226 leukemia): 3.87 µM
- TGI (OVCAR-5 ovarian): 3.4 µM
- TGI (A498 renal): 1.15 µM
- TGI (RXF 393 renal): 0.88 µM
- TGI (T-47D breast): 5.38 µM
- TGI (OVCAR-3 ovarian): 1.7 µM
- TGI (BT-549 breast): 4.95 µM
- TGI (CAKI-1 renal): 2.21 µM
- TGI (SK-MEL-28 melanoma): 3.17 µM
- TGI (UACC-62 melanoma): 0.78 µM
- TGI (SK-MEL-2 melanoma): 1.05 µM
- TGI (SK-OV-3 ovarian): 1.97 µM
- TGI (UO-31 renal): 3.04 µM
- TGI (NCI-H226 lung): 0.386 µM
- TGI (MCF7 breast): 1.57 µM
- TGI (NCI/ADR-RES ovarian): 12.4 µM
- TGI (NCI-H460 lung): 1.72 µM
- TGI (SN12C renal): 0.488 µM
- TGI (SF-268 CNS): 0.51 µM
- TGI (SK-MEL-5 melanoma): 2.08 µM
- TGI (SNB-19 CNS): 1.44 µM
- TGI (NCI-H522 lung): 0.149 µM
- TGI (SW-620 colon): 2.71 µM
- TGI (786-0 renal): 1.82 µM
- TGI (SF-539 CNS): 0.758 µM
- TGI (MDA-MB-435): 1.18 µM
- TGI (PC-3 prostate): 1.7 µM
- TGI (OVCAR-8 ovarian): 0.594 µM
- TGI (SF-295 CNS): 2.01 µM
- TGI (NCI-H23 lung): 1.02 µM
- TGI (K-562 leukemia): 0.383 µM
- TGI (SNB-75 CNS): 0.362 µM
- TGI (HCC-2998 colon): 0.971 µM

SMILES: CCCCN1C(=O)CC2[C@@H]3CCc4cc(OC(C)=O)ccc4C3CC[C@]2(C)C1=O (some centres not stated)
- TGI (A549 NSCLC): > 10 µM
- TGI (MOLT-4 leukemia): > 10 µM
- TGI (HOP-62 NSCLC): > 10 µM
- TGI (M14 melanoma): > 10 µM
- TGI (MDA-MB-231 breast): > 10 µM
- TGI (MALME-3M melanoma): > 10 µM
- TGI (OVCAR-4 ovarian): > 10 µM
- TGI (HT29 colon): > 10 µM
- TGI (EKVX NSCLC): > 10 µM
- TGI (LOX IMVI melanoma): > 10 µM
- TGI (SR leukemia): > 10 µM
- TGI (ACHN renal): > 10 µM
- TGI (COLO 205 colon): > 10 µM
- TGI (HOP-92 NSCLC): > 10 µM
- TGI (TK-10 renal): > 10 µM
- TGI (HS 578T breast): > 10 µM
- TGI (HCT-116 colon): > 10 µM
- TGI (DU-145 prostate): > 10 µM
- TGI (MDA-N): > 10 µM
- TGI (IGROV1 ovarian): > 10 µM
- TGI (U251 CNS): > 10 µM
- TGI (UACC-257 melanoma): > 10 µM
- TGI (CCRF-CEM leukemia): > 10 µM
- TGI (KM12 colon): > 10 µM
- TGI (HCT-15 colon): > 10 µM
- TGI (RPMI-8226 leukemia): > 10 µM
- TGI (OVCAR-5 ovarian): > 10 µM
- TGI (A498 renal): > 10 µM
- TGI (RXF 393 renal): > 10 µM
- TGI (T-47D breast): > 10 µM
- TGI (OVCAR-3 ovarian): > 10 µM
- TGI (BT-549 breast): > 10 µM
- TGI (CAKI-1 renal): > 10 µM
- TGI (SK-MEL-28 melanoma): > 10 µM
- TGI (UACC-62 melanoma): > 10 µM
- TGI (SK-MEL-2 melanoma): > 10 µM
- TGI (SK-OV-3 ovarian): > 10 µM
- TGI (UO-31 renal): > 10 µM
- TGI (NCI-H226 lung): > 10 µM
- TGI (MCF7 breast): > 10 µM
- TGI (NCI/ADR-RES ovarian): > 10 µM
- TGI (NCI-H460 lung): > 10 µM
- TGI (SN12C renal): > 10 µM
- TGI (SF-268 CNS): > 10 µM
- TGI (SK-MEL-5 melanoma): > 10 µM
- TGI (SNB-19 CNS): > 10 µM
- TGI (SW-620 colon): > 10 µM
- TGI (786-0 renal): > 10 µM
- TGI (SF-539 CNS): > 10 µM
- TGI (HL-60(TB) leukemia): > 10 µM
- TGI (MDA-MB-435): > 10 µM
- TGI (PC-3 prostate): > 10 µM
- TGI (OVCAR-8 ovarian): > 10 µM
- TGI (SF-295 CNS): > 10 µM
- TGI (NCI-H23 lung): > 10 µM
- TGI (K-562 leukemia): > 10 µM
- TGI (HCC-2998 colon): > 10 µM
